Patent US20020062491A1, “Method of producing primary hepatocellular carcinoma-bearing model animals” (WELFIDE CORPORATION, priority 2000, published 2002)

Tests used:
Format in all cases: in vivo, male Fischer 344 rats
GST-P-positive foci = test: Analysis of GST-P-stained liver specimens (GST-P-positive foci); details: for Focal area (GST-P positive) / Number of foci (GST-P positive) / Number of foci, focal size 0-0.03 mm^2 / Number of foci, focal size 0.03-0.1 mm^2 / Number of foci, focal size 0.1-0.3 mm^2 / Number of foci, focal size 0.3-1.0 mm^2 / Number of foci, focal size 1.0-3.0 mm^2 / Number of foci, focal size 3.0-10.0 mm^2 / Number of foci, focal size 10.0-30.0 mm^2 / Number of foci, focal size 30.0-100.0 mm^2 / Number of foci, focal size 100.0- mm^2: eight weeks; for GST-P-positive foci, comparison between groups in words: group 4 vs group 2, groups 5, 6 vs group 3, groups 7, 8, 9 vs group 4
Protocol: (§1) To the animals in group 1, only a CRF-1 basal diet (Oriental Yest Co., Ltd., Tokyo) was fed. To the ones in group 2, only a CDAA (Dyets Inc., USA) diet was fed. The CDAA diet, whose composition is shown in Table 1, was fed from the day before the 1st administration day of DEN (day 1) and was stored under refrigeration until use. To the ones in group 3, a CRF-1 basal diet was fed and DEN was treated. The dose of DEN was set at 95 mg/kg body weight (2 ml/kg body weight) and rats were intraperitoneally treated once a week for the first three weeks (day 1, 8 and 15). To the ones in group 4, a CDAA diet was fed and DEN was treated. To the ones in group 5, a CRF-1 basal diet was fed and given DEN and PH. In the partial hepatectomy (PH), the left lobe and the right and left sublobes of the median lobe of the liver were excised. PH was carried out on the day before the first administration of PB (day 28). To the ones in group 6, a CRF-1 basal diet was fed and given DEN, PH, and PB. The dose of PB was set at 60 mg/kg body weight (2 ml/kg body weight) and rats were intraperitoneally treated three times a week from week 5 (day 29, 32, 34, 36, 39, 41, 43, 46, 48, 50, 53, and 55). To the ones in group 7, a CDAA diet was fed and given DEN and PH. To the ones in group 8, a CDAA diet was fed and given DEN and PB. To the ones in group 9, a CDAA diet was fed and given DEN, PH, and PB. This experiment was started on Apr. 10, 1997.
Immunohistochemical staining using polyclonal antibodies against GST-P was applied to facilitate quantitative evaluation of altered hepatocellular foci. Paraffin sections were stained immunohistochemically using the labeled streptavidin-biotin-peroxidase complex (LSAB) method for binding of rabbit anti-rat GST-Yp polyclonal antibody (1:1000; BIO PREP, IRELAND). The analytical procedure for the GST-P-stained specimens was as follows. Photographs (x10) of GST-P-stained specimens of whole cross-section of liver were taken. Photographs were jointed to construct complete cross-sectional image. GST-P-positive foci (hereinafter foci) were painted out with felt pen. Cross-sectional images were processed by Image Scanner (GT-6500, SEIKO EPSONCO., Ltd., Nagano) (using EpScan Mac). The area of each focus and total cross-sectional area of each image were measured using Adobe Photoshop and NIH image. Number of foci per unit area and focal area per unit area were calculated from data on number of foci, mean focal area, total focal area, and total organ area.
All examination data were statistically evaluated by F-t test. First, equal dispersion was tested by F test (significance level 5%). Student-t test was carried out where population variance was judged to be equal, and Welch-t test where it was judged different. Bilateral significance level was set at 5% and 1%.

[1] = Survival, final body weight and liver weight, 8-week study (Experimental Example 1); details: mean ± spread; DEN 95 mg/kg i.p. day 1, 8, 15; PB 60 mg/kg i.p. three times a week from week 5; PH day 28
Protocol: The eighty six male 4-week-old Fischer 344 rats used in this study were obtained from Charles River Japan, Inc. (Kanagawa). Grouping of the rats was performed according to the latest body weight. The animals were housed, two/cage in a climate-controlled animal room at temperature of 24±3° C., relative humidity of 55±15%, and ventilation rate of 10-20 times/h with 12-hour illumination, and allowed free access to the prescribed diets in every group and tap water.
To the animals in group 1, only a CRF-1 basal diet (Oriental Yest Co., Ltd., Tokyo) was fed. To the ones in group 2, only a CDAA (Dyets Inc., USA) diet was fed. The CDAA diet, whose composition is shown in Table 1, was fed from the day before the 1st administration day of DEN (day 1) and was stored under refrigeration until use. To the ones in group 3, a CRF-1 basal diet was fed and DEN was treated. The dose of DEN was set at 95 mg/kg body weight (2 ml/kg body weight) and rats were intraperitoneally treated once a week for the first three weeks (day 1, 8 and 15). To the ones in group 4, a CDAA diet was fed and DEN was treated. To the ones in group 5, a CRF-1 basal diet was fed and given DEN and PH. In the partial hepatectomy (PH), the left lobe and the right and left sublobes of the median lobe of the liver were excised. […]
All examination data were statistically evaluated by F-t test. […]

liver = test: Autopsy and histopathological examination of liver (H.E.-stained specimens); details: eight weeks; for Histopathological findings of H.E.-stained liver, in words: comparator group as stated in the value (groups 2 and 3: findings not observed in group 1 CRF-1)
Protocol: as §1
At eight weeks (day 60-63), autopsy was performed after the animals were sacrificed by exsanguination under ether anesthesia. After the liver had been excised and fixed in 10% neutral buffered formalin fixative, paraffin sections and H.E.-stained specimens were prepared and microscopic examination was carried out.

| SMILES | Focal area (GST-P positive) (GST-P-positive foci) [CT mm^2/mm^2Liver] | Number of foci (GST-P positive) (GST-P-positive foci) | Number of foci, focal size 0-0.03 mm^2 (GST-P-positive foci) | Number of foci, focal size 0.03-0.1 mm^2 (GST-P-positive foci) [CT /mm^2Liver] | Number of foci, focal size 0.1-0.3 mm^2 (GST-P-positive foci) | Number of foci, focal size 0.3-1.0 mm^2 (GST-P-positive foci) [CT /mm^2Liver] | Number of foci, focal size 1.0-3.0 mm^2 (GST-P-positive foci) | Number of foci, focal size 3.0-10.0 mm^2 (GST-P-positive foci) | Number of foci, focal size 10.0-30.0 mm^2 (GST-P-positive foci) | Number of foci, focal size 30.0-100.0 mm^2 (GST-P-positive foci) | Number of foci, focal size 100.0- mm^2 (GST-P-positive foci) | GST-P-positive foci, comparison between groups in words (GST-P-positive foci) | Body weight (day 57) [1] | Altered hepatocellular foci, number of animals by grade (±, +, 2+, 3+) (liver; H.E.-stained liver) | Vacuolar degeneration, number of animals by grade (±, +, 2+, 3+) (liver; H.E.-stained liver) | Histopathological findings of H.E.-stained liver, in words (liver) |
| --- | --- | --- | --- | --- | --- | --- | --- | --- | --- | --- | --- | --- | --- | --- | --- | --- |
| CCN(CC)N=O [CRF-1+DEN+PH, Diethylnitrosoamine] | 0.015 ± 0.006 | 0.467 ± 0.162 . CT /mm^2Liver | 0.335 ± 0.124 . CT /mm^2Liver | 0.105 ± 0.030 | 0.023 ± 0.014 . CT /mm^2Liver | 0.003 ± 0.002 | 0.000 ± 0.000 . CT /mm^2Liver | 0.000 ± 0.000 . CT /mm^2Liver | 0.000 ± 0.000 . CT /mm^2Liver | 0.000 ± 0.000 . CT /mm^2Liver | 0.000 ± 0.000 . CT /mm^2Liver | focal areas were elevated | 263.85 ± 3.96 ** * g | 4 | 4 | altered hepatocellular foci were more marked than in group 3 (CRF-1+DEN) |
| CCN(CC)N=O [CRF-1+DEN, Diethylnitrosoamine] | 0.006 ± 0.002 | 0.350 ± 0.083 CT /mm^2Liver | 0.312 ± 0.070 CT /mm^2Liver | 0.035 ± 0.021 | 0.003 ± 0.005 CT /mm^2Liver | 0.000 ± 0.000 | 0.000 ± 0.000 CT /mm^2Liver | 0.000 ± 0.000 CT /mm^2Liver | 0.000 ± 0.000 CT /mm^2Liver | 0.000 ± 0.000 CT /mm^2Liver | 0.000 ± 0.000 CT /mm^2Liver | foci were observed | 257.52 ± 5.11 CT g |  |  | slight vacuolar degeneration and altered hepatocellular foci |
